Data on two compounds can be found in patent publication US20100151053A1, “SYSTEM AND METHOD FOR THE DELIVERY OF A SANITIZING FOAM” (GREEN SOURCE AUTOMATED, LLC, priority 2008, published 2010).

This data set is described as follows: volumes of gas dissolved in teat dip solution under pressure. It counts as physicochemical. The note with it: standard room temperature and 100 psi pressure; TeatKote 10/111 dip solution. An excerpt: When a vessel containing the dip solution is pressurized, the gas mixture pressure causes the gasses to dissolve into the dip and an amount of energy caused by the pressurization acts upon the system. The system is allowed to come to equilibrium and the temperature is controlled such that any temperature rise caused by this energy introduction is removed. Henry's law states: “the amount of any given gas that will dissolve in a liquid at a given temperature is a function of the partial pressure of the gas that is in contact with the liquid and the solubility coefficient of the gas in the particular liquid.” In other words, the amount of gas that can be dissolved into a liquid depends on the temperature, the pressure, and how well the particular liquid absorbs gases. With that being said, in order to make a consistent application of the preparation as a foam on the teats of a cow, a consistent pressure and temperature is beneficial. A recirculation loop from the pressurized tank to the nozzle and back to the tank can, for example, be employed to make sure the temperature and dissolved gas content remain consistent with that of the dip mixture in the tank in an embodiment of the invention.
In various embodiments of the invention, a pressure vessel is used to hold the dip solution and expose it to the propellant/diffused gas or gasses. […]

In the case of `O=C=O` [CO2, Carbon dioxide], the “volumes dissolved, gas versus dip solution” value is on record as “approximately 4.5 volumes”.
With `[N-]=[N+]=O` [Example N2O, nitrous oxide], the “volumes dissolved, gas versus dip solution” value is “approximately four”.
